Experimental data: ChEMBL document CHEMBL4725253, “Discovery of quinoline-based irreversible BTK inhibitors” (Bioorg Med Chem Lett, 2020)

Columns and labels:
[1] = biological target: T1, Tyrosine-protein kinase Tec (Homo sapiens, UniProt P42680); assay: Inhibition of His-tagged recombinant human TEC expressed in baculovirus expression system preincubated for 1 hr by Z'lyte assay
T1 sequence (P42680 whole entry): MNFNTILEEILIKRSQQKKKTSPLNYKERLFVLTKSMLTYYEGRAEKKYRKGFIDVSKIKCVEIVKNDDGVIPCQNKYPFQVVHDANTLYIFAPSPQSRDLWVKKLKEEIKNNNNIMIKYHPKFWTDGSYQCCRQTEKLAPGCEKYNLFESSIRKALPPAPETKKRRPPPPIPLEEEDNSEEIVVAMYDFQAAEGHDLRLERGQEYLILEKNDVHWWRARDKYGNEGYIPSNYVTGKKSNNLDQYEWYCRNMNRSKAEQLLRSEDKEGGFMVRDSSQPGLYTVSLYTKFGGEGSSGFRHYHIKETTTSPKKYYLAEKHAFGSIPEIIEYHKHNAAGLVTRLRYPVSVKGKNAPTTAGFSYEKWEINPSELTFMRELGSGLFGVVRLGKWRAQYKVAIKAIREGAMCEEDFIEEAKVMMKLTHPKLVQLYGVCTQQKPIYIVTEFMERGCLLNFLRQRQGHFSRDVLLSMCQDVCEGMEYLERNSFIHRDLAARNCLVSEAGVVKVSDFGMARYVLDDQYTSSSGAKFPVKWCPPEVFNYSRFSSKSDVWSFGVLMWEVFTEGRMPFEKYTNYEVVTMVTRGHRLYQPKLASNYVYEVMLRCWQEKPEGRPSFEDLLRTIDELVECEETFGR

[2] = biological target: Tyrosine-protein kinase Blk (Homo sapiens, UniProt P51451); assay: Inhibition of recombinant full length human His-tagged BLK cytoplasmic domain expressed in baculovirus expression system using tyrosine-1 peptide as substrate preincubated for 1 hr in presence of ATP by Z'-LYTE assay
[3] = Inhibition of goat anti-human IgM F(ab')-stimulated CD69 cell surface expression in human PBMC preincubated for 2 hrs followed by anti-human IgM stimulation for 18 hrs by flow cytometric analysis; assay type: functional, tissue-based
[4] = Inhibition of anti-human alphaIgM-stimulated MIP1beta production in human Ramos B cells preincubated for 1 hr followed by anti-human IgM stimulation for 6 hrs by ELISA; assay type: functional, cell-based
[5] = biological target: T2, Tyrosine-protein kinase TXK (Homo sapiens, UniProt P42681); assay: Inhibition of recombinant human N-terminal GST-tagged TXK (260 to 527 residues) expressed in baculovirus expression system using tyrosine-6 peptide as substrate preincubated for 1 hr in presence of ATP by Z'-LYTE assay
T2 sequence (P42681 whole entry): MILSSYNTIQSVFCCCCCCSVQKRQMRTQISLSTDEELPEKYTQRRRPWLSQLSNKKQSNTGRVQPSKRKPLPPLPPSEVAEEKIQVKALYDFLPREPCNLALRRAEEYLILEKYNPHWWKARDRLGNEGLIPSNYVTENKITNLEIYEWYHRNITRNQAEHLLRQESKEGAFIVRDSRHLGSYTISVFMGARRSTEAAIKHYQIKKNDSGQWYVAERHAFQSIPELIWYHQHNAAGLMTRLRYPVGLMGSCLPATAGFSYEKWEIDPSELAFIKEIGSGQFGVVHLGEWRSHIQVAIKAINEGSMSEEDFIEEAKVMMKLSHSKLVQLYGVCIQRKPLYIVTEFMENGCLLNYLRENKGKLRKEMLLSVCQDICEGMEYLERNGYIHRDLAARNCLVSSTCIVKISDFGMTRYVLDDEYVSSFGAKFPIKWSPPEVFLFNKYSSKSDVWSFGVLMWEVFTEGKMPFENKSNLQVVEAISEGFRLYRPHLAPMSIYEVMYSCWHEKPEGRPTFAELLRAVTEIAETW

[6] = biological target: Receptor tyrosine-protein kinase erbB-4 (Homo sapiens, UniProt Q15303); assay: Inhibition of recombinant human N-terminal GST-tagged ERBB4 catalytic domain (708 to 993 residues) expressed in baculovirus expression system using tyrosine-1 peptide as substrate preincubated for 1 hr in presence of ATP by Z'-LYTE assay
[7] = biological target: Epidermal growth factor receptor (Homo sapiens, UniProt P00533); assay: Inhibition of recombinant human GST-tagged EGFR (668 to 1210 residues) expressed in baculovirus expression system using Tyr 04 peptide as substrate preincubated for 1 hr by Z'-LYTE assay
[8] = biological target: T3, Tyrosine-protein kinase JAK3 (Homo sapiens, UniProt P52333); assay: Inhibition of recombinant human GST-tagged JAK3 catalytic domain (781 to 1124 residues) expressed in baculovirus expression system using tyrosine-6 peptide as substrate preincubated for 1 hr in presence of ATP by Z'-LYTE assay
T3 sequence (P52333 whole entry): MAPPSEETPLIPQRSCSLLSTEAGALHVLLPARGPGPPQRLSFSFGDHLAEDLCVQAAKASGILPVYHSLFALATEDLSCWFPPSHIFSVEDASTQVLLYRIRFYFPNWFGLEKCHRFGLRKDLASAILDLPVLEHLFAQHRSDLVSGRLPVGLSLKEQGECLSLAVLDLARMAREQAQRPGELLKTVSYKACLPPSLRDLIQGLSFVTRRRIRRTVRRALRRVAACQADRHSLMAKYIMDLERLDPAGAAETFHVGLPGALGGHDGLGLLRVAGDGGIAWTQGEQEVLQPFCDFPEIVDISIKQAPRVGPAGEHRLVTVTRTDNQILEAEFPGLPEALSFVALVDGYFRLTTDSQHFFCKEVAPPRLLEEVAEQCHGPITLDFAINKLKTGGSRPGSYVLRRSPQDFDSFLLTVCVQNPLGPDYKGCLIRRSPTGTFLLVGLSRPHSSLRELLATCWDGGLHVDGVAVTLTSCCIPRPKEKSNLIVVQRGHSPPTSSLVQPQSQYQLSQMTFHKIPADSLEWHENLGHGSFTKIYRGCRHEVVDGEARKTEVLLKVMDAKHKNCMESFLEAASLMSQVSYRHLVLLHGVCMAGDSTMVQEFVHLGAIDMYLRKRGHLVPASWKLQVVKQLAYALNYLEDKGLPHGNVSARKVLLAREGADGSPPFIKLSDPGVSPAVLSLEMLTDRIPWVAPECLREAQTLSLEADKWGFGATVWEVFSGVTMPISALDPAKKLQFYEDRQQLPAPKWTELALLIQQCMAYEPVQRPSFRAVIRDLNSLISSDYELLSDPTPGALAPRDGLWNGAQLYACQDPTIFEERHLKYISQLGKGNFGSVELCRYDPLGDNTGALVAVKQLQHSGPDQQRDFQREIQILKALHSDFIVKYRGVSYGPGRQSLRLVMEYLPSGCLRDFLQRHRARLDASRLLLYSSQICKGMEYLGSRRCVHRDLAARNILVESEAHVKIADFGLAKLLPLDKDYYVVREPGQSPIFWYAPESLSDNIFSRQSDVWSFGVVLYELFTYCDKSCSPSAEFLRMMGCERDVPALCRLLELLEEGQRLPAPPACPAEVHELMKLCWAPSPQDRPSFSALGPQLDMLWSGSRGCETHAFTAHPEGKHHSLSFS

Epidermal growth factor receptor, sequence (P00533 whole entry, the tested form may be a part): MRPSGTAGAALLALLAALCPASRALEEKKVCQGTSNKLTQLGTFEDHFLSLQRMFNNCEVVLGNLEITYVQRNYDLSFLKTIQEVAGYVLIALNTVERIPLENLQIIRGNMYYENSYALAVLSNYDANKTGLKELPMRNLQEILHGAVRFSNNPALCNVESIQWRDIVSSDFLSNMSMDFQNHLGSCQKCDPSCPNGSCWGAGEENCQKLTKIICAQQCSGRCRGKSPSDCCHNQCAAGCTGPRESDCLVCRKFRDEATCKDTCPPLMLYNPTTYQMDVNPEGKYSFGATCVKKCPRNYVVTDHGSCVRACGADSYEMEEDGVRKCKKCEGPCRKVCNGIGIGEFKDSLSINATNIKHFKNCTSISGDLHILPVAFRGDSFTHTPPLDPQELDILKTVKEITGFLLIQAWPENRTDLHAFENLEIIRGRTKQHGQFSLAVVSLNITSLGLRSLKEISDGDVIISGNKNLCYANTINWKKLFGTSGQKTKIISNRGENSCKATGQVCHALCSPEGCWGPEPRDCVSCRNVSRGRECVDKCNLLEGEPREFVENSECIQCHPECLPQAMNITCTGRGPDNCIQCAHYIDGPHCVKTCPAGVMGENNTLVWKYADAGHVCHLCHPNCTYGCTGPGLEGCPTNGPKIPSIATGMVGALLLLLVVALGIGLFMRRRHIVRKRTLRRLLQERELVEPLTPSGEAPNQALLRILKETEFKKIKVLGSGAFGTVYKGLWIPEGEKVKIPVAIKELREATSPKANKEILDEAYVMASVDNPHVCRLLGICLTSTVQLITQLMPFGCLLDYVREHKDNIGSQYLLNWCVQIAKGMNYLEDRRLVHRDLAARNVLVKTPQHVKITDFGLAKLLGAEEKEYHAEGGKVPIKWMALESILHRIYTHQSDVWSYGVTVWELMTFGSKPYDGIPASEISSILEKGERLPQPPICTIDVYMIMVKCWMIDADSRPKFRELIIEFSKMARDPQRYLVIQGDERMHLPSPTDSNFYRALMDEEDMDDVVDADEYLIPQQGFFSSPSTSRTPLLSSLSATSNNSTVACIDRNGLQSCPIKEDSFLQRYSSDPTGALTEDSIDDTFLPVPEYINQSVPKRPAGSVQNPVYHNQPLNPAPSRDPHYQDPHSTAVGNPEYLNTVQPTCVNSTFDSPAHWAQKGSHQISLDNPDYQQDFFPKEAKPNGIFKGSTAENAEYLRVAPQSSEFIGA
Receptor tyrosine-protein kinase erbB-4, sequence (Q15303 whole entry, the tested form may be a part): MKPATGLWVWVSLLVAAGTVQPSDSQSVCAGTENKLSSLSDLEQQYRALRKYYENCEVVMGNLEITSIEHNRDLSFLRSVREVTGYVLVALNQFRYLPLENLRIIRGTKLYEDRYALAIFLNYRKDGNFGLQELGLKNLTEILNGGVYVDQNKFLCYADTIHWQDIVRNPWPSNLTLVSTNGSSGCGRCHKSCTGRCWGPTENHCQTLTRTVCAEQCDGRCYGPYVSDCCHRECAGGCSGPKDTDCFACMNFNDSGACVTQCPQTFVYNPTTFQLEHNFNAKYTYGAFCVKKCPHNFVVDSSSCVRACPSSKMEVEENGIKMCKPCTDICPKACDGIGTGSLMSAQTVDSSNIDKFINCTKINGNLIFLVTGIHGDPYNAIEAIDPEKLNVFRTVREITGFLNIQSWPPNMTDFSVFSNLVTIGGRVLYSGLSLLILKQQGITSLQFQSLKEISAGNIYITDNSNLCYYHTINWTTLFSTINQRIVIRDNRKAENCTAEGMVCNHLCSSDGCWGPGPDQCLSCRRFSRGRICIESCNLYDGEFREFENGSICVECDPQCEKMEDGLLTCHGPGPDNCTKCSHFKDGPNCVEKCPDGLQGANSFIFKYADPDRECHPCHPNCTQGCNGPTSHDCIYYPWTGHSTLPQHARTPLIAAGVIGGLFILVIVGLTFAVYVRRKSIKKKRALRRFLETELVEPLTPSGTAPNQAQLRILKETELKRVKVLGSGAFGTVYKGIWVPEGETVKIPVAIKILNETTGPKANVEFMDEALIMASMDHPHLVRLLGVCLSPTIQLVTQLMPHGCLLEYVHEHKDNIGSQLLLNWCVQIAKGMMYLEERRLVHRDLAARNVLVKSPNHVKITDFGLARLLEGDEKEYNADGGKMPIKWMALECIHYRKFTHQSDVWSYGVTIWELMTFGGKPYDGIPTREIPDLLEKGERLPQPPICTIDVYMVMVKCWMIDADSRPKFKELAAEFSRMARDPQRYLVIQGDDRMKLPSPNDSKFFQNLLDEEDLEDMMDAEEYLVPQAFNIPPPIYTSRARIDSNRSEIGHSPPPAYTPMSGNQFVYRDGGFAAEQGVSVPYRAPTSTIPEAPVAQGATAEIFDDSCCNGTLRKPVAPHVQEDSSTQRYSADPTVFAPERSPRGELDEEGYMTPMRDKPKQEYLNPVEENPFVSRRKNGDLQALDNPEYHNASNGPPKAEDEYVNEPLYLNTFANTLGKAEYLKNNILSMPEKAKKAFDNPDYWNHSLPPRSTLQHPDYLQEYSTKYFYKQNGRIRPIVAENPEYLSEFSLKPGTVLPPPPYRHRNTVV
Tyrosine-protein kinase Blk, sequence (P51451 whole entry, the tested form may be a part): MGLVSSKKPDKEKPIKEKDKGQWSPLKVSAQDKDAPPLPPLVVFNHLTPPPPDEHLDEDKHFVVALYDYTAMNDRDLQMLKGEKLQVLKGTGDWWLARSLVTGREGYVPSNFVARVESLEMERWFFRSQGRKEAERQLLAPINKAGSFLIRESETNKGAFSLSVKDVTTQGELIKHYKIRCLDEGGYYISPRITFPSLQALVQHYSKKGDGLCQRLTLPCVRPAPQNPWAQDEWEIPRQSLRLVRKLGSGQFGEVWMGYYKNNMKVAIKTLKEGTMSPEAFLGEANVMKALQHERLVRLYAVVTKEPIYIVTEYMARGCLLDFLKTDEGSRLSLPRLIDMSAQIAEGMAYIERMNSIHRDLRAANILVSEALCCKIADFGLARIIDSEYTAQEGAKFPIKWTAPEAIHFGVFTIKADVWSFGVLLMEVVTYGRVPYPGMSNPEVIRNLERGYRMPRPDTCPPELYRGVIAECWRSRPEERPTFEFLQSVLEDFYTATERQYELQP

COc1cc2nccc(Oc3ccc(C(=O)Nc4ccccn4)cc3)c2cc1NC(=O)C#CCCN1CCOCC1
IC50 [1]: 184 nM | IC50 [2]: 8.3 nM | EC50 [3]: 1.8 nM | EC50 [4]: 4.1 nM | IC50 [5]: 19 nM | IC50 [6]: 901 nM | IC50 [7]: 138 nM | IC50 [8]: 174 nM

CC#CC(=O)Nc1cc2c(Oc3ccc(C(=O)Nc4ccccn4)cc3)ccnc2cc1OCCN1CCOCC1
IC50 [1]: 219 nM | IC50 [2]: 72 nM | EC50 [3]: 4.1 nM | EC50 [4]: 15 nM | IC50 [5]: 229 nM | IC50 [6]: 37 nM | IC50 [7]: > 1000 nM | IC50 [8]: > 1000 nM

C=CC(=O)Nc1ccc2nccc(Oc3ccc(C(=O)Nc4cc(CC)ccn4)cc3)c2c1
IC50 [1]: 38 nM | IC50 [2]: 21.2 nM | EC50 [3]: 15 nM | EC50 [4]: 22 nM | IC50 [5]: 294 nM | IC50 [6]: 16 nM | IC50 [7]: 958 nM | IC50 [8]: 838 nM
